Laboratory results reported in ChEMBL document CHEMBL4507266, “Data for DCP probe BAY-784” (2021).

Key:
[1] = test system: Epidermal growth factor receptor (Homo sapiens), P00533 [L858R,T790M]; conditions: Compound concentration 1000.0 nM
[2] = target: Ephrin type-B receptor 2 (Homo sapiens) (UniProt P29323); conditions: Compound concentration 1000.0 nM
[3] = target: Aurora kinase A (Homo sapiens) (UniProt O14965); conditions: Compound concentration 1000.0 nM
[4] = target: Tyrosine-protein kinase receptor Tie-1 (Homo sapiens) (UniProt P35590); conditions: Compound concentration 1000.0 nM
[5] = target: Cyclin-dependent kinase 11A (Homo sapiens) (UniProt Q9UQ88); conditions: Compound concentration 1000.0 nM
[6] = target: Mitogen-activated protein kinase kinase kinase kinase 1 (Homo sapiens) (UniProt Q92918); conditions: Compound concentration 1000.0 nM
[7] = target: Receptor-type tyrosine-protein kinase FLT3 (Homo sapiens) (UniProt P36888); conditions: Compound concentration 1000.0 nM
[8] = target: cAMP-dependent protein kinase catalytic subunit alpha (Homo sapiens) (UniProt P17612); conditions: Compound concentration 1000.0 nM
[9] = target: Serine/threonine-protein kinase Nek6 (Homo sapiens) (UniProt Q9HC98); conditions: Compound concentration 1000.0 nM
[10] = target: Protein kinase C epsilon type (Homo sapiens) (UniProt Q02156); conditions: Compound concentration 1000.0 nM
[11] = target: NUAK family SNF1-like kinase 2 (Homo sapiens) (UniProt Q9H093); conditions: Compound concentration 1000.0 nM
[12] = target: Homeodomain-interacting protein kinase 4 (Homo sapiens) (UniProt Q8NE63); conditions: Compound concentration 1000.0 nM
[13] = target: Serine/threonine-protein kinase ICK (Homo sapiens) (UniProt Q9UPZ9); conditions: Compound concentration 1000.0 nM
[14] = target: Cyclin-dependent kinase-like 2 (Homo sapiens) (UniProt Q92772); conditions: Compound concentration 1000.0 nM
[15] = target: Ribosomal protein S6 kinase alpha-2 (Homo sapiens) (UniProt Q15349); conditions: Compound concentration 1000.0 nM
[16] = target: Eukaryotic translation initiation factor 2-alpha kinase 1 (Homo sapiens) (UniProt Q9BQI3); conditions: Compound concentration 1000.0 nM
[17] = target: Vascular endothelial growth factor receptor 1 (Homo sapiens) (UniProt P17948); conditions: Compound concentration 1000.0 nM
[18] = target: Serine/threonine-protein kinase LATS2 (Homo sapiens) (UniProt Q9NRM7); conditions: Compound concentration 1000.0 nM
[19] = target: Serine/threonine-protein kinase MRCK alpha (Homo sapiens) (UniProt Q5VT25); conditions: Compound concentration 1000.0 nM
[20] = test system: Phosphatidylinositol 4,5-bisphosphate 3-kinase catalytic subunit alpha isoform (Homo sapiens), P42336 [Q546K]; conditions: Compound concentration 1000.0 nM
[21] = target: Mitogen-activated protein kinase kinase kinase 19 (Homo sapiens) (UniProt Q56UN5); conditions: Compound concentration 1000.0 nM
[22] = target: Serine/threonine-protein kinase SIK2 (Homo sapiens) (UniProt Q9H0K1); conditions: Compound concentration 1000.0 nM
[23] = target: Megakaryocyte-associated tyrosine-protein kinase (Homo sapiens) (UniProt P42679); conditions: Compound concentration 1000.0 nM
[24] = target: T1, D(4) dopamine receptor (Homo sapiens) (UniProt P21917); conditions: Compound concentration 10.0 uM
T1 sequence (whole entry): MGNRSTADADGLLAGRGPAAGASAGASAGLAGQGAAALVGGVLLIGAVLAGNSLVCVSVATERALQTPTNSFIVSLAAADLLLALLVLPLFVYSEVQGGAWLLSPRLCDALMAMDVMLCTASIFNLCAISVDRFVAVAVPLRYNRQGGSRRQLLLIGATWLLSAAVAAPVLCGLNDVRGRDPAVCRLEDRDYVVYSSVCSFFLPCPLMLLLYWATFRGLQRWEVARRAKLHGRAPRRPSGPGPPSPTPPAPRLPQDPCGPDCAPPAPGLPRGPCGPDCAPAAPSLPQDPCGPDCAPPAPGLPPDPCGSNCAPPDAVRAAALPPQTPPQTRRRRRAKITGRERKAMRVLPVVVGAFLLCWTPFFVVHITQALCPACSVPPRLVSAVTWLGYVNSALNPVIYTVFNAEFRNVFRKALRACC

[25] = target: Mitogen-activated protein kinase kinase kinase kinase 2 (Homo sapiens) (UniProt Q12851); conditions: Compound concentration 1000.0 nM
[26] = target: Serine/threonine-protein kinase PknB (Mycobacterium tuberculosis) (UniProt P9WI81); conditions: Compound concentration 1000.0 nM
[27] = target: Dual specificity mitogen-activated protein kinase kinase 4 (Homo sapiens) (UniProt P45985); conditions: Compound concentration 1000.0 nM
[28] = target: TGF-beta receptor type-1 (Homo sapiens) (UniProt P36897); conditions: Compound concentration 1000.0 nM
[29] = target: Hormonally up-regulated neu tumor-associated kinase (Homo sapiens) (UniProt P57058); conditions: Compound concentration 1000.0 nM
[30] = target: Phosphatidylinositol 3-kinase C2 domain-containing subunit gamma (Homo sapiens) (UniProt O75747); conditions: Compound concentration 1000.0 nM
[31] = target: Tyrosine-protein kinase BTK (Homo sapiens) (UniProt Q06187); conditions: Compound concentration 1000.0 nM
[32] = target: Serine/threonine-protein kinase 10 (Homo sapiens) (UniProt O94804); conditions: Compound concentration 1000.0 nM
[33] = target: Casein kinase I isoform gamma-2 (Homo sapiens) (UniProt P78368); conditions: Compound concentration 1000.0 nM
[34] = target: Serine/threonine-protein kinase MRCK beta (Homo sapiens) (UniProt Q9Y5S2); conditions: Compound concentration 1000.0 nM
[35] = test system: Receptor-type tyrosine-protein kinase FLT3 (Homo sapiens), P36888 [D835H]; conditions: Compound concentration 1000.0 nM
[36] = target: Serine/threonine-protein kinase MRCK gamma (Homo sapiens) (UniProt Q6DT37); conditions: Compound concentration 1000.0 nM
[37] = target: Tyrosine-protein kinase CSK (Homo sapiens) (UniProt P41240); conditions: Compound concentration 1000.0 nM
[38] = target: Serine/threonine-protein kinase PAK 5 (Homo sapiens) (UniProt Q9P286); conditions: Compound concentration 1000.0 nM
[39] = target: SRSF protein kinase 2 (Homo sapiens) (UniProt P78362); conditions: Compound concentration 1000.0 nM

Sequence of Eukaryotic translation initiation factor 2-alpha kinase 1 (Homo sapiens) (Q9BQI3 whole entry): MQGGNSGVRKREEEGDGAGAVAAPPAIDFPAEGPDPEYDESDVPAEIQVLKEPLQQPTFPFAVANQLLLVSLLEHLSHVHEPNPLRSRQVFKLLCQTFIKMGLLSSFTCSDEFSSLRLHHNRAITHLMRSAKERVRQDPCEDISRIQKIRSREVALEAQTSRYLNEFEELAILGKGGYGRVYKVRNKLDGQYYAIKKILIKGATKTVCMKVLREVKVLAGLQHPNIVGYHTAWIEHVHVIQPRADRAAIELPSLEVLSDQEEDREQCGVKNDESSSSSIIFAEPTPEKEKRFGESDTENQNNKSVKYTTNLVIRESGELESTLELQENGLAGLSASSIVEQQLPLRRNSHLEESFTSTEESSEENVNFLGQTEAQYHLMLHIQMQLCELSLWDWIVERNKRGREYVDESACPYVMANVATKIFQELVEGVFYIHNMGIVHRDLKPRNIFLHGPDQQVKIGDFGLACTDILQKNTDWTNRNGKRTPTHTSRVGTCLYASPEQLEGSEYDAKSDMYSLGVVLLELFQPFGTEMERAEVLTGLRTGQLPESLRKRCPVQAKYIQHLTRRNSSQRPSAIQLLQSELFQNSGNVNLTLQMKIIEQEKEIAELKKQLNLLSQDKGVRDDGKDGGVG
Sequence of Homeodomain-interacting protein kinase 4 (Homo sapiens) (Q8NE63 whole entry): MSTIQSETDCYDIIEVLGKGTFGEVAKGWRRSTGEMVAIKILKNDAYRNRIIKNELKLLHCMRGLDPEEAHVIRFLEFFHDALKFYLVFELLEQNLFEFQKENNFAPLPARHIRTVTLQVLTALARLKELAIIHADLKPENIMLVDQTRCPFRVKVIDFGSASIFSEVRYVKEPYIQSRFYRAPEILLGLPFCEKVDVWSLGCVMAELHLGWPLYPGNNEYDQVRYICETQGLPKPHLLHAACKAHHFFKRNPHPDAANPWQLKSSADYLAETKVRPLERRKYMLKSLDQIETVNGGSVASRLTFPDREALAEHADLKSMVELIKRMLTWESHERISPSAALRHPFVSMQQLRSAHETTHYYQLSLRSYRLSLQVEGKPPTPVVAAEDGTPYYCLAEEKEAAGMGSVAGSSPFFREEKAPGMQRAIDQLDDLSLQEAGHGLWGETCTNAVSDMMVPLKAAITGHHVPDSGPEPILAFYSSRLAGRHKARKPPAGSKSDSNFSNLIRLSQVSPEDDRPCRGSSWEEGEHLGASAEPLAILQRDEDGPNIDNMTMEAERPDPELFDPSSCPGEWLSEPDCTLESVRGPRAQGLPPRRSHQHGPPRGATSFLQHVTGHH
Sequence of Tyrosine-protein kinase BTK (Homo sapiens) (Q06187 whole entry): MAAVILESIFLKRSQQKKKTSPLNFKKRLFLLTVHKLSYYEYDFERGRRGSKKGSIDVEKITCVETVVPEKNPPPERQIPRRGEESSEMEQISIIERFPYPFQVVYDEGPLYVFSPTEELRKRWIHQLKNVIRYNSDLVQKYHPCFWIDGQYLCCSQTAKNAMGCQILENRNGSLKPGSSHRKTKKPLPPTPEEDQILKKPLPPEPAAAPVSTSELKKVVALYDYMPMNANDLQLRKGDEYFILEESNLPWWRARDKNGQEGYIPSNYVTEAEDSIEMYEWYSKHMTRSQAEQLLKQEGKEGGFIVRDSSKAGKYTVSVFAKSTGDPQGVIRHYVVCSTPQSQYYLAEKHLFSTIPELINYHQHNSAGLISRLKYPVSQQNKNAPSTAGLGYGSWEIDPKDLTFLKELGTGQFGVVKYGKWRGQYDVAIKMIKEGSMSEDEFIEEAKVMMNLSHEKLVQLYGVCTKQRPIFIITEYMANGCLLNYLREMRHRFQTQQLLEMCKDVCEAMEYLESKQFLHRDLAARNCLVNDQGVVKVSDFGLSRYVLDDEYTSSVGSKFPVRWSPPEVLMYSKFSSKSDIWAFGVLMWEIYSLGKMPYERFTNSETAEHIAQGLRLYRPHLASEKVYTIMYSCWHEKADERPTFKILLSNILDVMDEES
Sequence of Serine/threonine-protein kinase MRCK beta (Homo sapiens) (Q9Y5S2 whole entry): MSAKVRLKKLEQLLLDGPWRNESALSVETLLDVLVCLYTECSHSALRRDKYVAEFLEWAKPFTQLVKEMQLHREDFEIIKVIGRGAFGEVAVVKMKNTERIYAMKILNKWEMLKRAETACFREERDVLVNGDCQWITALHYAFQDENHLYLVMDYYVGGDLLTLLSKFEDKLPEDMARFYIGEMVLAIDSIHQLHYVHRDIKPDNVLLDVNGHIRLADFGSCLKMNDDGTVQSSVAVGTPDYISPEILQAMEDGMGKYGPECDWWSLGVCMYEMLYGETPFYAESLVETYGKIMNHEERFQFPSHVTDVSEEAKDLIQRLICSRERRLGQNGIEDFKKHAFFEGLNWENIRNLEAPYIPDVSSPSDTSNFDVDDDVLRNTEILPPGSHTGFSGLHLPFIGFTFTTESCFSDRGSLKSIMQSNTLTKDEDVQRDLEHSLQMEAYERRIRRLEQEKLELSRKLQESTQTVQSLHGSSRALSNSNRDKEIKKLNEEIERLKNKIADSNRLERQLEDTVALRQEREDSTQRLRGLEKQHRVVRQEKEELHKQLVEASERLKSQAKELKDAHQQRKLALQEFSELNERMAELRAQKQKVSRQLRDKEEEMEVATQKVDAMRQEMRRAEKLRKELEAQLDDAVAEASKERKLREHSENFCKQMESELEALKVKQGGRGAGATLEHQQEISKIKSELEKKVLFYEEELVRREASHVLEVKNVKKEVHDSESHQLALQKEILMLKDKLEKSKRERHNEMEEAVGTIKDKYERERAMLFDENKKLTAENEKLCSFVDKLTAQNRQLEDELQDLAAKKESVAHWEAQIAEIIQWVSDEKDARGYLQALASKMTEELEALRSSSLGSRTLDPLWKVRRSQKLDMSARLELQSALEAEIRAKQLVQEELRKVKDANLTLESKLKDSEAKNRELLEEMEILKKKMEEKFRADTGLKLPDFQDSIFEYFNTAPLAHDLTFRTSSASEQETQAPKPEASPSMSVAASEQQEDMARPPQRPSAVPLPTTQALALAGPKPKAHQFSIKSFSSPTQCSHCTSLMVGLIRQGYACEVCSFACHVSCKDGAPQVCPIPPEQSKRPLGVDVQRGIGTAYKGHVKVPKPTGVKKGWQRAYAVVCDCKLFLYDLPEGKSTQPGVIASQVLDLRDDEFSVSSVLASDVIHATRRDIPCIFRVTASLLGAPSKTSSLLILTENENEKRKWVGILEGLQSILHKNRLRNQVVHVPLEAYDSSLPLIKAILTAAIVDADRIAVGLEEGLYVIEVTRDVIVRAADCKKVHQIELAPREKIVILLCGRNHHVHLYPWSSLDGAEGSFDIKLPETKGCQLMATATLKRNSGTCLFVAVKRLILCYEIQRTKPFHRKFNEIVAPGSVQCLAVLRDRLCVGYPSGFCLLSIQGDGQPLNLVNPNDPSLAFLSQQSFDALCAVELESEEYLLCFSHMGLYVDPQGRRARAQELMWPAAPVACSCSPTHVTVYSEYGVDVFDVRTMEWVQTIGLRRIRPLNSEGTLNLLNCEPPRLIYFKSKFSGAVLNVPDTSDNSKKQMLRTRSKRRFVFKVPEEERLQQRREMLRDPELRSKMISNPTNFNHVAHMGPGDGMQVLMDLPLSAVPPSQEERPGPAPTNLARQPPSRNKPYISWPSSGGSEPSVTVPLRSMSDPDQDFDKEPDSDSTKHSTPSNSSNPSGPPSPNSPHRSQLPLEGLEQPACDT
Sequence of Serine/threonine-protein kinase LATS2 (Homo sapiens) (Q9NRM7 whole entry): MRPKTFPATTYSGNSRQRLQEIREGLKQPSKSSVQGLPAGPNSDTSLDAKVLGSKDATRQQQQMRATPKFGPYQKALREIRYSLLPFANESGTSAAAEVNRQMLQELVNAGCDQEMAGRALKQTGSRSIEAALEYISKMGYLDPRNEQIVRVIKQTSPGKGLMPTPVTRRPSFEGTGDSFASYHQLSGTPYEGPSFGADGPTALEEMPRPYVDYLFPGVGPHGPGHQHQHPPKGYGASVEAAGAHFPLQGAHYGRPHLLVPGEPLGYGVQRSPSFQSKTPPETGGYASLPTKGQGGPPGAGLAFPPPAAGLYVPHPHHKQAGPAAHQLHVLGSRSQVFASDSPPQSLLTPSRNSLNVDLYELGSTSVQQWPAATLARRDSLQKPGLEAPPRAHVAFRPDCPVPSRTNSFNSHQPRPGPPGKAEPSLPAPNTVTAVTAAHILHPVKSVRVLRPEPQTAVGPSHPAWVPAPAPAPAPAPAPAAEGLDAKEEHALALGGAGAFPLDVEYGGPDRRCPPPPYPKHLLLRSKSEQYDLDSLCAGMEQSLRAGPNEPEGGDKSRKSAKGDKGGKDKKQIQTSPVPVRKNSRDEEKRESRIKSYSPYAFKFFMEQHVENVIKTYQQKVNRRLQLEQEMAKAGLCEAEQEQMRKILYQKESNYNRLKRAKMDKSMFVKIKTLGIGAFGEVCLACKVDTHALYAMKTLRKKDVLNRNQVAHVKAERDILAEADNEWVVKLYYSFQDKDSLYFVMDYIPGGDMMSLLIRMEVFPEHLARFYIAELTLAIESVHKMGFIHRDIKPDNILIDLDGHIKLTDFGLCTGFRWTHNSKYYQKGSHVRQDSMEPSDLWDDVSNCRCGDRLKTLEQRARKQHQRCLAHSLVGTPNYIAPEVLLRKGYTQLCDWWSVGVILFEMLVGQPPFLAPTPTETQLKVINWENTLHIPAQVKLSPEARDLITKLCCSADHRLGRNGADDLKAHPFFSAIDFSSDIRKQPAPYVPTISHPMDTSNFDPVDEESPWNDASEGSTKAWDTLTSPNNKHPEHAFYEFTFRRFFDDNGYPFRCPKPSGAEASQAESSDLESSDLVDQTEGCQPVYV
Sequence of Serine/threonine-protein kinase Nek6 (Homo sapiens) (Q9HC98 whole entry): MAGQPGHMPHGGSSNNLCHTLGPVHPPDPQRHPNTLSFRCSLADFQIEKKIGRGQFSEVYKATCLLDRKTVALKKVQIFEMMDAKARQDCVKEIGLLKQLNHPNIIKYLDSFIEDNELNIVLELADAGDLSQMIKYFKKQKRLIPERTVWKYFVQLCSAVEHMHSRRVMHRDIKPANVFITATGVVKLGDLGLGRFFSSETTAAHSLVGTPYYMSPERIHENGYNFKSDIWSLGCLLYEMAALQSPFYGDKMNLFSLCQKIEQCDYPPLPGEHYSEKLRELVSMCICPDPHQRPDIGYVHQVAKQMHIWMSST

O=C(NCc1ncc(C(F)(F)F)cc1Cl)c1ccc2c(c1)C1(CCS(=O)(=O)CC1)[C@H](C1CC1)N2S(=O)(=O)c1ccc(F)cc1 [BAY-784]
inactive: residual activity [1] 95% | residual activity [2] 100% | residual activity [3] 97% | residual activity [4] 100% | residual activity [5] 100% | residual activity [6] 100% | residual activity [7] 100% | residual activity [8] 86% | residual activity [9] 100% | residual activity [10] 69% | residual activity [11] 81% | residual activity [12] 100% | residual activity [13] 100% | residual activity [14] 100% | residual activity [15] 100% | residual activity [16] 86% | residual activity [17] 98% | residual activity [18] 100% | residual activity [19] 100% | residual activity [20] 76% | residual activity [21] 73% | residual activity [22] 96% | residual activity [23] 73% | inhibition [24] 1.57% | residual activity [25] 100% | residual activity [26] 96% | residual activity [27] 75% | residual activity [28] 100% | residual activity [29] 84% | residual activity [30] 75% | residual activity [31] 64% | residual activity [32] 54% | residual activity [33] 100% | residual activity [34] 100% | residual activity [35] 92% | residual activity [36] 100% | residual activity [37] 97% | residual activity [38] 100% | residual activity [39] 91%

O=C(NCc1ncc(C(F)(F)F)cc1Cl)c1ccc2c(c1)C1(CCS(=O)(=O)CC1)[C@@H](C1CC1)N2S(=O)(=O)c1ccc(F)cc1 [BAY-786]
inactive: residual activity [1] 75% | residual activity [2] 100% | residual activity [3] 81% | residual activity [4] 95% | residual activity [5] 100% | residual activity [6] 89% | residual activity [7] 100% | residual activity [8] 98% | residual activity [9] 95% | residual activity [10] 76% | residual activity [11] 75% | residual activity [12] 97% | residual activity [13] 97% | residual activity [14] 100% | residual activity [15] 93% | residual activity [16] 94% | residual activity [17] 82% | residual activity [18] 99% | residual activity [19] 100% | residual activity [20] 72% | residual activity [21] 69% | residual activity [22] 100% | residual activity [23] 74% | inhibition [24] -5.22% | residual activity [25] 91% | residual activity [26] 84% | residual activity [27] 76% | residual activity [28] 84% | residual activity [29] 85% | residual activity [30] 75% | residual activity [31] 73% | residual activity [32] 94% | residual activity [33] 85% | residual activity [34] 100% | residual activity [35] 100% | residual activity [36] 93% | residual activity [37] 96% | residual activity [38] 74% | residual activity [39] 100%
